From patent US20230172914A1, “BIOMARKER-BASED THERAPEUTIC COMPOSITION” (WELLMARKER BIO CO., LTD., priority 2019, published 2023) come the findings set out here.

Structures are written as SMILES.

The subject of data set [1] is colon cancer patient-derived cancer tissue (RON mutant: Δ160). In words: Efficacy in animal model transplanted with colon cancer patient tissue, 50 mpk. Format: in vivo, BALB/c nude mice. To be noted: 50 mpk oral, daily for 4 weeks. On the procedure: 5-week-old female BALB/c nude mice were purchased and acclimatized for 1 week. Then, colon cancer patient-derived cancer tissue was transplanted into the right dorsal side of the mice. Example 18 was orally administered when the tumor reached a size of about 100 mm^3. The drug was administered once a day for 4 weeks, and tumor size and body weight were measured twice a week to perform comparative analysis. After completion of the drug administration, the experimental animals were euthanized, and then the tumors were extracted and weighed to perform comparative analysis.
As a result, it was identifiable that tumor growth is inhibited in a case where Example 18 is administered to an animal model (RON mutant: Δ160) into which tumor cells in colon cancer patients have been transplanted. The drug was orally administered on a daily basis, and the dose used was 50 mpk. As a result of drug administration for 4 weeks, it was identified that tumor growth is inhibited by 80% or more (FIG. 18). In addition, after completion of the drug administration, the tumor tissues were extracted and weighed to perform comparative analysis. […] The lower pictures of FIG. 19 show tumors extracted from representative individuals of the respective groups.

Data set [2] deals with colon cancer patient-derived cell line expressing active RON. Description: Cell death in colon cancer patient-derived cell line expressing active RON (immunofluorescence). Type of data set: cell-based, human. To be noted: 5 ug, 48 hours, KRAS normal. On the procedure: The following condition and methods were used to perform the present experiment. […] Then, the respective cell lines were seeded at 5×10^5 cells onto 24-well plates, in which one sterile 12 mmΦ microscope cover glass was placed on each well, and incubated. The respective colon cancer patient-derived cell lines under incubation were subjected to treatment with Example 18 and Comparative Example 1, respectively, at 5 ug, and then incubated for 48 hours. Each incubated plate was washed twice with PBS, and then fixed with 100% Me-OH at room temperature for 5 minutes. The Me-OH was removed, and washing with PBS was performed three times for 5 minutes each. Then, 100 ul of 0.1% Triton X-100 (in PBS) was dispensed thereinto and permeabilization was allowed to occur for 5 minutes. Washing with PBS was performed three times for 5 minutes each, and then PBS was added thereto to prevent drying. Parafilm was attached to the 24-well plate cover, and then PBS-T (PBS+0.1% Tween 20) containing 3% BSA was dropped by 20 μl onto the parafilm. […] Then, washing with PBS-T (PBS+0.1% Tween 20) was performed twice, and a fluorescence microscope was used to identify the staining. […] Then, the cover glass was placed thereon, and a fluorescence microscope was used to take a fluorescence image.

Data set [3] has as its system KM12C cell line (active RON/RON mutant (Δ160)) tumor. In words: Tumor growth inhibition in animal model transplanted with KM12C (Experimental Example 10). Type of data set: in vivo, BALB/c nude mice. The protocol:
5-Week-old female BALB/c nude mice were purchased and acclimatized for 1 week. Then, human-derived colon cancer cell line KM12C (1.5×10^6 cells/mice) (cell line expressing active RON/RON mutant (Δ160)) was diluted in PBS, and injected subcutaneously (100 μl) into the right dorsal side of the mice. Comparative Examples 1 and Example 18 were orally administered when the tumor reached a size of about 100 mm^3. The drug was administered once a day for 2 weeks, and tumor size and body weight were measured twice a week. […] In addition, after completion of the drug administration, the experimental animals were euthanized, and then the tumors were extracted and weighed.
In addition, a portion of the extracted tumor tissue was fixed with 10% formalin, and then a paraffin block was produced therefrom. Then, changes in expression of each protein were checked through immunochemical staining. As a result, it was identified that in the group having received Example 18, expression of the active RON and p-ERK decreases, whereas expression of cleaved caspase 3 is induced (FIG. 11). Tumor tissues were collected from the vehicle group and the 5 mpk (mg/kg) treatment group, and changes in protein expression were compared through Western blotting.

Data set [4] has as its system KM12C cell line tumor. Description: Efficacy in animal model transplanted with KM12C, 30 and 50 mpk (Experimental Example 11). Format: in vivo, BALB/c nude mice. The note with it: once a day for 2 weeks. On the procedure: 5-Week-old female BALB/c nude mice were purchased and acclimatized for 1 week. Then, human-derived colon cancer cell line KM12C (1.5×10^6 cells/mice) was diluted in PBS, and injected subcutaneously (100 μl) into the right dorsal side of the mice. Comparative Examples 1 and Example 18 were orally administered when the tumor reached a size of about 100 mm^3. The drug was administered at 30 mpk and 50 mpk once a day for 2 weeks, and tumor size and body weight were measured twice a week. […] After completion of the drug administration, the experimental animals were euthanized, and then the tumors were extracted and weighed to perform comparative analysis.

[5] abbreviates: 5 mpk (mg/kg) treatment group vs vehicle.

For `CCOc1ccn(-c2ccc(F)cc2)c(=O)c1C(=O)Nc1ccc(Oc2ccnc3cc(-c4ccc(CN5CCOCC5)cn4)sc23)c(F)c1.Cl` [Example 18, 4-ethoxy-N-[3-fluoro-4-({2-[5-(morpholinomethyl)pyridin-2-yl]thieno[3,2-b]pyridine-7-yl}oxy)phenyl]-1-(4-fluorophenyl)-2-oxo-1,2-dihydropyridine-3-carboxamide hydrochloride], in data set [1], the “tumor growth inhibition (extracted tumor weight) compared with the vehicle” value is reported as “about 83%” and the “tumor growth inhibition (tumor size)” value was not below 80%. Further, the “cell death-inducing efficacy (cleaved caspase 3 immunofluorescence)” value in data set [2] is recorded as “exhibits cell death-inducing efficacy”. In data set [3] (setting [5]), the “active RON expression level in tumor tissue (Western blotting)” value is given as “decreased expression level” and the “cleaved caspase 3 expression level in tumor tissue (Western blotting)” value is on record as “increased expression level”. In addition, in data set [3] (extracted tumor tissue), the “expression of cleaved caspase 3 in tumor tissue (immunochemical staining)” value is given as “induced”; the “expression of the active RON and p-ERK in tumor tissue (immunochemical staining)” value is “decreases”. Moreover, in data set [3] (oral, once a day for 2 weeks), the “change in mouse body weight” value is listed as “no change in mouse body weight”, the “tumor growth inhibition efficacy (tumor size)” value is on record as “tumor growth inhibition efficacy with drug administration was observed” and the “tumor weight compared with the vehicle group” value is listed as “decreased tumor weight was observed”. Also, the “TGI (%)” value in data set [4] (30 mg/kg oral) was found to be 82.4%. Further, the “TGI (%)” value in data set [4] (50 mg/kg oral) is 84.8%. In data set [4] (30 mpk and 50 mpk oral), the “change in mouse body weight” value is “little change in mouse body weight” and the “tumor growth inhibition efficacy” value is reported as “very high tumor growth inhibition efficacy”.
